Measured values taken from ChEMBL document CHEMBL1150279, “Non-peptide gonadotropin-releasing hormone receptor antagonists” (J Med Chem, 2008).

Assays:
[1] = target: T1, Gonadotropin-releasing hormone receptor (Homo sapiens, UniProt P30968); experiment: (§1) Binding affinity at human GnRH receptor
T1 sequence (P30968 whole entry): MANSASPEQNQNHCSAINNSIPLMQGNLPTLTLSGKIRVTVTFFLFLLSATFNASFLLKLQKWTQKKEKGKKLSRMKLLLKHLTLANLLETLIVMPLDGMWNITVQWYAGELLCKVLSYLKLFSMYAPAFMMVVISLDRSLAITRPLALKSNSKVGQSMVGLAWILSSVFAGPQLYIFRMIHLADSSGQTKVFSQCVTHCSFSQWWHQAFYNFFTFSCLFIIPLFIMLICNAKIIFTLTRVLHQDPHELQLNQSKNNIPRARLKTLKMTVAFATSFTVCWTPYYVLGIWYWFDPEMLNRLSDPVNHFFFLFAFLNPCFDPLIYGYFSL

[2] = target: T2, Gonadotropin-releasing hormone receptor (Rattus norvegicus, UniProt P30969); experiment: Binding affinity at rat GnRH receptor
T2 sequence (P30969 whole entry): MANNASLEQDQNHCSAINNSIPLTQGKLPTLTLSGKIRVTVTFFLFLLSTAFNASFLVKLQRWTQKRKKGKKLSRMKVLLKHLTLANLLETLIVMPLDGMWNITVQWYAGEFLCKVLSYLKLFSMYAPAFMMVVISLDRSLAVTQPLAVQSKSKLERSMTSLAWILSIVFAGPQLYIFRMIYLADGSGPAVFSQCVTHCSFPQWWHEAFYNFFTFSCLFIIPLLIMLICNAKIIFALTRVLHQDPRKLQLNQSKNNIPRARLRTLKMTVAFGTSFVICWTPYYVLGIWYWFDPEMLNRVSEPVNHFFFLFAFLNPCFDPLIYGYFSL

[3] = Half life in postmenopausal women at 5 to 200 mg, po; type: ADME, organism-based; conditions: female, human, in vivo
[4] = Tmax in postmenopausal women at 5 to 200 mg, po; type: ADME, organism-based; conditions: female, human, in vivo
Rhesus monkey = experiment: Suppression of circulating luteinizing hormone in monkey; type: functional, Macaca mulatta
[5] = Binding affinity to alpha1 adrenergic receptor
[6] = target: T2, Gonadotropin-releasing hormone receptor; experiment: Binding affinity at rat GnRH receptor by whole cell binding assay
[7] = target: 5-hydroxytryptamine receptor 2B (Homo sapiens) (UniProt P41595); experiment: Binding affinity to 5HT2B receptor
Sequence of 5-hydroxytryptamine receptor 2B (Homo sapiens) (P41595 whole entry): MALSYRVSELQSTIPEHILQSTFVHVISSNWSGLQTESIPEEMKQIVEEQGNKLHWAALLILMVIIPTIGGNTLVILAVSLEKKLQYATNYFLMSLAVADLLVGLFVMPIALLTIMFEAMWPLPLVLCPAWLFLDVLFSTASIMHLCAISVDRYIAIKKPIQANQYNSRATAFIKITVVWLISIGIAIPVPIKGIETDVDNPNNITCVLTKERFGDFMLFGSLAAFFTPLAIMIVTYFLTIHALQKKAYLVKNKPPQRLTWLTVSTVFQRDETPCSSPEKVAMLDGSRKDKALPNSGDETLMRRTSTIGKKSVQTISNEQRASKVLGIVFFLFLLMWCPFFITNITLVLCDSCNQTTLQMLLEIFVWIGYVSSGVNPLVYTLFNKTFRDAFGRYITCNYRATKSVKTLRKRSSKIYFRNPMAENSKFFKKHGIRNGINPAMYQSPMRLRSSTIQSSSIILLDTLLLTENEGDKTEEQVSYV

[8] = target: T1, Gonadotropin-releasing hormone receptor; experiment: Binding affinity at human GnRH receptor by calcium mobilization assay; type: functional
[9] = target: T1, Gonadotropin-releasing hormone receptor; experiment: Binding affinity at human GnRH receptor by competition binding assay
[10] = Oral bioavailability in monkey; type: ADME, organism-based, Macaca mulatta; conditions: rhesus monkey, in vivo
Rattus norvegicus = experiment: Suppression of circulating luteinizing hormone in rat at 110 mg/kg, po relative to control; type: functional
[11] = target: T2, Gonadotropin-releasing hormone receptor; experiment: Antagonist activity at rat GnRH receptor assessed as luteinizing hormone release in rat pituitary cells; type: functional, cell-based, Pituitary gland cell; conditions: read-out: pA2 (converted)
[12] = target: T3, Gonadotropin-releasing hormone receptor (Macaca mulatta, UniProt Q8SPZ1); experiment: Activity at rhesus monkey GnRH receptor by inositol phosphate functional assay
T3 sequence (Q8SPZ1 whole entry): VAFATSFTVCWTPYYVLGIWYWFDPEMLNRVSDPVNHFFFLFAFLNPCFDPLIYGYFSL

[13] = target: T4, Gonadotropin-releasing hormone receptor (Homo sapiens) (UniProt P30968); experiment: as §1
T4 sequence (whole entry): T1 sequence (P30968 whole entry)

[14] = target: T3, Gonadotropin-releasing hormone receptor; experiment: Binding affinity at monkey GnRH receptor
Cynomolgus monkey [15] = experiment: Suppression of circulating luteinizing hormone in cynomolgus monkey at 30 mg/kg, po relative to baseline; type: functional, Macaca fascicularis
[16] = Binding affinity at cynomolgus monkey GnRH receptor expressed in CHO cells; type: cell-based, Macaca fascicularis
Cynomolgus monkey [17] = experiment: Suppression of circulating luteinizing hormone in cynomolgus monkey at 10 mg/kg, po relative to baseline; type: functional, Macaca fascicularis
[18] = Cmax in healthy male human at 200 mg; type: ADME, organism-based; parameters: dose 200 mg; conditions: in vivo
[19] = Cmax in healthy male human at 10 mg; type: ADME, organism-based; parameters: dose 10 mg; conditions: in vivo
[20] = AUC (0 to 8 hrs) in healthy male human at 200 mg; type: ADME, organism-based; parameters: dose 200 mg, time < 8 hr; conditions: plasma
[21] = Inhibition of circulating luteinizing hormone in cynomolgus monkey pituitary cells; type: functional, Macaca fascicularis, Pituitary gland cell
[22] = AUC (0 to 8 hrs) in healthy male human at 10 mg; type: ADME, organism-based; parameters: dose 10 mg, time < 8 hr; conditions: plasma
[23] = Activity at cynomolgus monkey GnRH receptor expressed in CHO cells assessed as inhibition of arachidonic acid release; type: cell-based; conditions: Macaca fascicularis
[24] = AUC (0 to 6 hrs) in cynomolgus monkey at 10 mg/kg, po; type: ADME, organism-based, Macaca fascicularis; parameters: time < 6 hr, dose 10 mg/kg, route oral; conditions: plasma
[25] = target: T2, Gonadotropin-releasing hormone receptor; experiment: Binding affinity at rat GnRH receptor by competition binding assay
[26] = Oral bioavailability in rat; type: ADME, organism-based; conditions: in vivo
Plasma = experiment: Protein binding in rat plasma; type: ADME, cell-free

Compound `N[C@@H](Cn1c(=O)c(-c2ccccc2F)c2n(c1=O)C(c1ccccc1)CS2)c1ccccc1` (stereo partly drawn) has a Ki [1] of 230 nM.
For `Cc1cc(C)cc(-c2[nH]c3c(c2[C@H](C)CNCCc2ccc(-c4nnn[nH]4)cc2)CN(C(=O)Cc2c(F)cccc2C(F)(F)F)CC3)c1`, the IC50 [2] was 0.2 nM.
`COc1cccc(-c2nn(Cc3c(F)cccc3C(F)(F)F)c(=O)n(C[C@H](N)c3ccccc3)c2=O)c1F` showed a Ki [1] of 13 nM.
In the case of `COc1cccc(-c2c(C)n(Cc3c(F)cccc3F)c(=O)n(C[C@H](N)c3ccccc3)c2=O)c1F`, the half-life [3] is reported as 162 min, the Tmax [4] is reported as 24 min and the Activity (Rhesus monkey) is reported as 32%.
`COc1cccc(-c2c(C)n(Cc3c(F)cccc3F)c(=O)n(C[C@H](C)N(C)CCc3ccccn3)c2=O)c1` showed a Ki [1] of 470 nM.
In the case of `Cc1cc(C)cc(-c2[nH]c3ccc(C(C)(C)C(=O)N4CC5CCC4CC5)cc3c2[C@H](C)CNCCc2ccncc2)c1`, the Activity [5] is reported as 114 nM, the IC50 [6] is reported as 1.7 nM and the Activity [7] is reported as 165 nM.
Work on `COc1cccc(-c2c(C)n(Cc3c(F)cccc3C(F)(F)F)c(=O)n(C[C@H](N)c3ccccc3)c2=O)c1F` yielded a Ki [1] of 0.5 nM.
`CCSc1nc2cc(S(=O)(=O)NCc3ccccc3OC)ccc2n1Cc1ccccc1` showed an IC50 [8] of 3.4 µM.
`N[C@@H](Cn1c(=O)c(Cc2c(F)cccc2F)nn(-c2ccccc2F)c1=O)c1ccccc1` gave a Ki [1] of 580 nM.
With `CSc1ccc(CN2CCc3c(c(=O)n(CCN(C)CCc4ccccn4)c(=O)n3Cc3c(F)cccc3F)C2)cc1` the Ki [1] was 15 nM.
Work on `COc1cccc(-c2nn(Cc3c(F)cccc3C(F)(F)F)c(=O)n(C[C@H](N)c3ccccc3)c2=O)c1Cl` yielded a Ki [1] of 2.3 nM.
With `CC(C)(C)NC(=O)NCCc1nc2cc(S(=O)(=O)NCc3ccc(Cl)cc3)ccc2n1Cc1ccccc1` the IC50 [8] was < 0.01 µM.
For `COc1cccc(-c2c(C)n(Cc3c(F)cccc3F)c(=O)n(CC(C)(N)c3ccccc3)c2=O)c1F` (stereo not drawn), the Ki [1] was 23 nM.
In the case of `Cc1c(-c2ccccc2F)c(=O)n(C[C@H](N)c2ccccc2)c(=O)n1Cc1ccccc1F`, the Ki [1] is reported as 19 nM.
Compound `FC(F)(F)c1nc2c(N3CCN(CCOc4cccc5[nH]c(=S)[nH]c45)CC3)cccc2[nH]1` has an IC50 [9] of 800 nM.
In the case of `N[C@@H](Cn1c(=O)c(-c2ccccc2F)c2n(c1=O)C(c1ccccc1F)CS2)c1ccccc1` (stereo partly drawn), the Ki [1] is reported as 220 nM.
`COc1cccc(-c2c3n(c(=O)n(C[C@H](N)c4ccccc4)c2=O)C(c2ccccc2F)CS3)c1Cl` (stereo partly drawn) showed a Ki [1] of 4.5 nM.
In the case of `N[C@@H](Cn1c(=O)c(-c2ccccc2F)c2n(c1=O)C(c1ccccc1F)CO2)c1ccccc1` (stereo partly drawn), the Ki [1] is reported as 230 nM.
`CN[C@@H](Cc1ccccc1)Cn1c(=O)c(-c2cccc(OC)c2F)c(C)n(Cc2c(F)cccc2F)c1=O` showed a bioavailability [10] of 22%.
Work on `CC[C@H]1OC(=O)[C@H](C)[C@@H](OC(=O)N2C(=O)OC[C@@H]2C)[C@H](C)[C@@H](O[C@@H]2O[C@H](C)C[C@H](N(C)CC3CC3)[C@H]2O)[C@@](C)(OC)C[C@@H](C)C(=O)[C@H](C)[C@H]2N(CCc3ccc(Cl)c(Cl)c3)C(=O)O[C@]12C` yielded an Activity (Rattus norvegicus) of 20% and a Kb [11] of 1.58 nM.
`Cc1cc(-c2c(OCC[C@@H]3CCN3)c3cc(C(=O)Nc4ccncn4)c(Cl)cc3[nH]c2=O)cc(C)c1C` gave an IC50 [12] of 7 nM, an Activity [13] of 0.4 nM and a Ki [14] of 0.5 nM.
`COc1cccc(-n2c(=O)c(Cc3c(F)cccc3F)nn(C[C@H](N)c3ccccc3)c2=O)c1` gave a Ki [1] of 110 nM.
`CONC(=O)Nc1ccc(-c2sc3c(c2CN(C)Cc2ccccc2)c(=O)n(-c2ccccc2)c(=O)n3Cc2c(F)cccc2F)cc1` [SUFUGOLIX] showed an Activity (Cynomolgus monkey [15]) of 11%, an IC50 [16] of 0.6 nM and an Activity (Cynomolgus monkey [17]) of 18%. It also gave a Cmax [18] of 274 ng/mL, a Cmax [19] of 15 ng/mL and an AUC(0-t) at 8 h [20] of 2560 ng·h/mL. For the same compound, the Activity [21] was 36 nM, the AUC(0-t) at 8 h [22] was 173 ng·h/mL and the IC50 [23] was 10 nM. The AUC(0-t) at 6 h [24] was 0.85 µM·h.
In the case of `C=C1C(Cl)=CC=C1c1c(C)n(Cc2c(F)cccc2F)c(=O)n(C[C@H](N)c2ccccc2)c1=O`, the Ki [1] is reported as 14 nM.
For `COc1cccc(-c2c(C)n(Cc3c(F)cccc3S(C)(=O)=O)c(=O)n(C[C@H](N)c3ccccc3)c2=O)c1F`, the Ki [1] was 0.2 nM.
`N[C@@H](Cn1c(=O)c(-c2ccccc2F)c2n(c1=O)[C@@H](c1ccccc1)CS2)c1ccccc1` gave a Ki [1] of 110 nM.
Work on `CCn1cc(CN2CCN(c3cccc4[nH]c(-c5ccc(C(C)(C)C)cc5)nc34)CC2)c(=O)[nH]c1=O` yielded an IC50 [9] of 1.6 nM, an IC50 [25] of 18 nM and a bioavailability [26] of 72%.
For `COc1cccc(-c2c3n(c(=O)n(C[C@H](N)c4ccccc4)c2=O)C(c2ccccc2F)CS3)c1F` (stereo partly drawn), the Ki [1] was 40 nM.
Work on `COc1cccc(-c2c(C)n(Cc3c(F)cccc3[S+](C)[O-])c(=O)n(C[C@H](N)c3ccccc3)c2=O)c1F` (stereo partly drawn) yielded a Ki [1] of 4.4 nM.
Compound `CC(C)(C)c1ccc(-c2nc3c(N4CCN(Cc5ccnc(S(C)(=O)=O)n5)CC4)cccc3[nH]2)cc1` has an IC50 [9] of 5.2 nM.
Compound `CCc1nc(C)c(CN2CCN(c3cccc4[nH]c(-c5ccc(C(C)(C)C)cc5)nc34)CC2)[nH]1` has an IC50 [9] of 6.6 nM.
`COc1cc(OC)c(NC(=O)c2ccc(Cc3cc4c(cc3C)C(C)(C)CCC4(C)C)o2)c(OC)c1` showed an Activity (Plasma) of 99.9% and a Ki [25] of 3.8 nM.
Compound `CCSc1nc2cc(NC(=O)C3CC3)ccc2n1C(C)C` has an IC50 [8] of 10 µM.
`CCCn1c(SCc2cc([N+](=O)[O-])ccc2OC)nc2cc(NC(=O)NC(C)(C)C)cc(C(=O)NC)c21` gave an IC50 [8] of 41 µM.
